Measurements as given in patent publication US6706664B1, “Benzoxazole compounds, process for the preparation thereof and herbicides” (UBE Industries, Ltd., priority 1999, dated 2004).

Assays:
Set-up in all cases: key: 0: normal development; 1: Less damaged; 2: Slightly damaged; 3: Moderately damaged; 4: Severely damaged; 5: All killed
young rice plant = assay: Herbicidal test for paddy field; format: in vivo; conditions: paddy field pot, 500 g/ha dropwise at 1.5 leaf stage of barnyardgrass, 3 weeks, rank vs non-treated
Summary of the method: (§1)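 Scores ran from 0 (normal development) to 5 (all killed) against untreated pots, judged after 3 weeks in a glasshouse averaging 25° C. Compound, as wettable powder diluted in water with 0.05% surfactant, was applied dropwise into 3 cm-deep paddy water at 500 g/ha. Application was at the 1.5-leaf stage of barnyardgrass.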

barnyardgrass [1] = assay: Herbicidal test for paddy field; format: in vivo, Echinochloa crusgalli; conditions: paddy field pot, 500 g/ha dropwise at 1.5 leaf stage of barnyardgrass, 3 weeks, rank vs non-treated
Summary of the method: as §1

monochoria = assay: Herbicidal test for paddy field; format: in vivo, Monochoria vaginalis; conditions: paddy field pot, 500 g/ha dropwise at 1.5 leaf stage of barnyardgrass, 3 weeks, rank vs non-treated
Summary of the method: as §1

corn = assay: Soil treatment test for upland field; format: in vivo; conditions: 500 g/ha, glass house 25° C., 3 weeks
Summary of the method: (§2)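 Soil treatment, 500 g/ha, sprayed onto soil surface after sowing; alluvial Ube soil; 0.05% surfactant in diluent; glasshouse, avg 25° C, 3 wk; visual score 0–5 (5 = all killed).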

cotton = assay: Soil treatment test for upland field; format: in vivo; conditions: 500 g/ha, glass house 25° C., 3 weeks
Summary of the method: as §2

solgum = assay: Soil treatment test for upland field; format: in vivo; conditions: 500 g/ha, glass house 25° C., 3 weeks
Summary of the method: as §2

soybean = assay: Soil treatment test for upland field; format: in vivo; conditions: 500 g/ha, glass house 25° C., 3 weeks
Summary of the method: as §2

sugar beat = assay: Soil treatment test for upland field; format: in vivo; conditions: 500 g/ha, glass house 25° C., 3 weeks
Summary of the method: as §2

wheat = assay: Soil treatment test for upland field; format: in vivo; conditions: 500 g/ha, glass house 25° C., 3 weeks
Summary of the method: as §2

Large crabgrass = assay: Soil treatment test for upland field; format: in vivo, Digitaria adscendens; conditions: 500 g/ha, glass house 25° C., 3 weeks
Summary of the method: as §2

barnyardgrass [2] = assay: Soil treatment test for upland field; format: in vivo, Echinochloa crusgalli; conditions: 500 g/ha, glass house 25° C., 3 weeks
Summary of the method: as §2

blackgrass [3] = assay: Soil treatment test for upland field; format: in vivo, Alopecurus aegualis; conditions: 500 g/ha, glass house 25° C., 3 weeks
Summary of the method: as §2

annual bluegrass [4] = assay: Soil treatment test for upland field; format: in vivo, Poa annua; conditions: 500 g/ha, glass house 25° C., 3 weeks
Summary of the method: as §2

livid amaranth [5] = assay: Soil treatment test for upland field; format: in vivo, Amaranthus lividus; conditions: 500 g/ha, glass house 25° C., 3 weeks
Summary of the method: as §2

blackgrass [6] = assay: Foliar spread test for upland field; format: in vivo, Alopecurus aegualis; conditions: foliar spray 500 ppm, 3 weeks, rank vs non-treated
Summary of the method: (§3)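 Wettable powders at 500 ppm, with 0.5% surfactant, were sprayed uniformly over plants raised for roughly 2 weeks in glasshouse pots of volcanic ash soil. Herbicidal damage rated on a 0–5 scale (5 = all killed) after a further 3 weeks at an average 25 °C.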

annual bluegrass [7] = assay: Foliar spread test for upland field; format: in vivo, Poa annua; conditions: foliar spray 500 ppm, 3 weeks, rank vs non-treated
Summary of the method: as §3

common lambsquartes = assay: Foliar spread test for upland field; format: in vivo, Chenopodium album; conditions: foliar spray 500 ppm, 3 weeks, rank vs non-treated
Summary of the method: as §3

livid amaranth [8] = assay: Foliar spread test for upland field; format: in vivo, Amaranthus lividus; conditions: foliar spray 500 ppm, 3 weeks, rank vs non-treated
Summary of the method: as §3

morning glory = assay: Foliar spread test for upland field; format: in vivo, Ipomoea spps.; conditions: foliar spray 500 ppm, 3 weeks, rank vs non-treated
Summary of the method: as §3

| Structure (SMILES) | Effect Young rice plant (young rice plant) | Effect Barnyardgrass (barnyardgrass [1]) | Effect Monochoria (monochoria) | Effects Corn (corn) | Effects Cotton (cotton) | Effects Solgum (solgum) | Effects Soybean (soybean) | Effects Sugar beat (sugar beat) | Effects Wheat (wheat) | Effects Large crabgrass (Large crabgrass) | Effects Barnyardgrass (barnyardgrass [2]) | Effects Blackgrass (blackgrass [3]) | Effects Annual bluegrass (annual bluegrass [4]) | Effects Livid amaranth (livid amaranth [5]) | Effects Blackgrass (blackgrass [6]) | Effects Annual bluegrass (annual bluegrass [7]) | Effects Common lambsquarters (common lambsquartes) | Effects Livid amaranth (livid amaranth [8]) | Effects Morning glory (morning glory) |
| --- | --- | --- | --- | --- | --- | --- | --- | --- | --- | --- | --- | --- | --- | --- | --- | --- | --- | --- | --- |
| CCC(Oc1ccc(F)c(C(F)(F)F)c1)c1nc2cc([N+](=O)[O-])ccc2o1 (stereo not drawn) [Compound 177] | 2 | 5 | 5 | 2 | 2 | 2 | 1 | 5 | 2 | 5 | 3 | 5 | 5 | 5 | 2 | 4 | 4 | 5 | 5 |
| CCC(Oc1cccc(C(F)(F)F)c1)c1nc2cc(C#N)ccc2o1 (stereo not drawn) [Compound 190] | 3 | 5 | 5 | 2 | 5 | 2 | 0 | 5 | 2 | 5 | 5 | 3 | 5 | 5 | 3 | 4 | 4 | 5 | 3 |
| CCCC(Oc1cccc(C(F)(F)F)c1)c1nc2cc(C#N)ccc2o1 (stereo not drawn) [Compound 192] | 1 | 5 | 5 | 2 | 1 | 2 | 0 | 5 | 2 | 5 | 3 | 5 | 5 | 5 | 2 | 4 | 4 | 4 | 2 |
| CCCC(Oc1ccc(F)c(C(F)(F)F)c1)c1nc2cc(C(F)(F)F)ccc2o1 (stereo not drawn) [Compound 199] | 1 | 4 | 5 | 1 | 2 | 1 | 2 | 5 | 0 | 5 | 2 | 2 | 5 | 5 | 2 | 2 | 4 | 4 | 4 |
| CCCC(Oc1cccc(C(F)(F)F)c1)c1nc2cc(C(F)(F)F)ccc2o1 (stereo not drawn) [Compound 200] | 0 | 2 | 5 | 1 | 1 | 1 | 0 | 5 | 1 | 5 | 5 | 4 | 5 | 5 | 2 | 4 | 4 | 4 | 3 |
| CCC(Oc1ccc(F)c(C(F)(F)F)c1)c1nc2cc(F)c(F)cc2o1 (stereo not drawn) [Compound 284] | 2 | 4 | 5 | 2 | 1 | 2 | 2 | 5 | 2 | 5 | 5 | 5 | 5 | 5 | 2 | 3 | 4 | 5 | 3 |
| CCC(Oc1cccc(C(F)(F)F)c1)c1nc2cc(C#N)c(C#N)cc2o1 (stereo not drawn) [Compound 315] | 1 | 3 | 4 | 2 | 1 | 1 | 1 | 5 | 1 | 5 | 4 | 5 | 5 | 5 | 2 | 2 | 5 | 5 | 3 |
| CCC(Oc1cccc(C(F)(F)F)c1)c1nc2cc(Cl)c(C)cc2o1 (stereo not drawn) [Compound 339, 1-(5-chloro-6-methylbenzoxazol-2-yl)-1-(3-(trifluoromethyl)phenoxy)propane] | 1 | 4 | 5 | 1 | 0 | 1 | 1 | 4 | 1 | 5 | 3 | 3 | 5 | 5 | 2 | 2 | 4 | 4 | 2 |
| CCC(Oc1ccc(F)c(C(F)(F)F)c1)c1nc2cc(Cl)c(C)cc2o1 (stereo not drawn) [Compound 340] | 0 | 5 | 5 | 2 | 0 | 3 | 0 | 5 | 1 | 5 | 4 | 4 | 5 | 5 | 2 | 3 | 4 | 4 | 3 |
